From ChEMBL document CHEMBL1138438, “Structural-activity relationship study of highly-functionalized imidazolines as potent inhibitors of nuclear transcription factor-kappaB mediated IL-6 production” (Bioorg Med Chem, 2009)

Experiments:
[1] = Cytotoxicity against human whole blood lymphocytes assessed as survival cell count in millions at 20 uM after 24 hrs by trypan blue staining-based hemocytometry
Blood = test: Antiinflammatory activity in human whole blood assessed as inhibition of IL-1-beta-stimulated IL6 production preincubated 2 hrs before IL1-beta challenge measured after 22 hrs by ELISA; type: functional, tissue-based
HeLa [2] = test: Effect on cell cycle arrest in TNF-alpha-stimulated human HeLa cells transfected with NFkappaB-Luc assessed as cell debris level at 1 uM after 8 hrs by using propidium iodide staining by FACS analysis; type: functional
HeLa [3] = test: Cell cycle arrest in TNF-alpha-stimulated human HeLa cells transfected with NFkappaB-Luc assessed as accumulation at diploid S phase at 20 uM after 8 hrs by using propidium iodide staining by FACS analysis; type: functional
HeLa [4] = test: Effect on cell cycle arrest in TNF-alpha-stimulated human HeLa cells transfected with NFkappaB-Luc assessed as cell aggregate level at 0.05 uM after 8 hrs by using propidium iodide staining by FACS analysis; type: functional
HeLa [5] = test: Cell cycle arrest in TNF-alpha-stimulated human HeLa cells transfected with NFkappaB-Luc assessed as accumulation at diploid stage at 0.5 uM after 8 hrs by using propidium iodide staining by FACS analysis; type: functional
HeLa [6] = test: Cell cycle arrest in TNF-alpha-stimulated human HeLa cells transfected with NFkappaB-Luc assessed as accumulation at diploid S phase at 1 uM after 8 hrs by using propidium iodide staining by FACS analysis; type: functional
HeLa [7] = test: Effect on cell cycle arrest in TNF-alpha-stimulated human HeLa cells transfected with NFkappaB-Luc assessed as total background cell aggregate and debris level at 0.1 uM after 8 hrs by using propidium iodide staining by FACS analysis; type: functional
HeLa [8] = test: Cell cycle arrest in TNF-alpha-stimulated human HeLa cells transfected with NFkappaB-Luc assessed as accumulation at diploid G1 phase at 0.1 uM after 8 hrs by using propidium iodide staining by FACS analysis; type: functional
HeLa [9] = test: Cell cycle arrest in TNF-alpha-stimulated human HeLa cells transfected with NFkappaB-Luc assessed as accumulation at total S phase at 5 uM after 8 hrs by using propidium iodide staining by FACS analysis; type: functional
HeLa [10] = test: Cell cycle arrest in TNF-alpha-stimulated human HeLa cells transfected with NFkappaB-Luc assessed as accumulation at diploid S phase at 10 uM after 8 hrs by using propidium iodide staining by FACS analysis; type: functional
HeLa [11] = test: Cell cycle arrest in TNF-alpha-stimulated human HeLa cells transfected with NFkappaB-Luc assessed as accumulation at G2/G1 phase at 0.05 uM after 8 hrs by using propidium iodide staining by FACS analysis; type: functional
HeLa [12] = test: Cell cycle arrest in TNF-alpha-stimulated human HeLa cells transfected with NFkappaB-Luc assessed as accumulation at G2/G1 phase at 1 uM after 8 hrs by using propidium iodide staining by FACS analysis; type: functional
HeLa [13] = test: Cell cycle arrest in TNF-alpha-stimulated human HeLa cells transfected with NFkappaB-Luc assessed as accumulation at diploid G2 phase at 1 uM after 8 hrs by using propidium iodide staining by FACS analysis; type: functional
[14] = Cytotoxicity against human 184B5 cells after 24 hrs by MTS assay; type: cell-based
[15] = Cytotoxicity against human whole blood lymphocytes assessed as survival cell count in millions at 1 uM after 24 hrs by trypan blue staining-based hemocytometry
HeLa [16] = test: Effect on cell cycle arrest in TNF-alpha-stimulated human HeLa cells transfected with NFkappaB-Luc assessed as cell aggregate level at 0.5 uM after 8 hrs by using propidium iodide staining by FACS analysis; type: functional
HeLa [17] = test: Effect on cell cycle arrest in TNF-alpha-stimulated human HeLa cells transfected with NFkappaB-Luc assessed as cell aggregate level at 20 uM after 8 hrs by using propidium iodide staining by FACS analysis; type: functional
HeLa [18] = test: Cell cycle arrest in TNF-alpha-stimulated human HeLa cells transfected with NFkappaB-Luc assessed as accumulation at diploid G1 phase at 5 uM after 8 hrs by using propidium iodide staining by FACS analysis; type: functional
HeLa [19] = test: Cell cycle arrest in TNF-alpha-stimulated human HeLa cells transfected with NFkappaB-Luc assessed as accumulation at diploid S phase at 5 uM after 8 hrs by using propidium iodide staining by FACS analysis; type: functional
HeLa [20] = test: Effect on cell cycle arrest in TNF-alpha-stimulated human HeLa cells transfected with NFkappaB-Luc assessed as cell debris level at 10 uM after 8 hrs by using propidium iodide staining by FACS analysis; type: functional
HeLa [21] = test: Effect on cell cycle arrest in TNF-alpha-stimulated human HeLa cells transfected with NFkappaB-Luc assessed as cell aggregate level at 1 uM after 8 hrs by using propidium iodide staining by FACS analysis; type: functional
HeLa [22] = test: Cell cycle arrest in TNF-alpha-stimulated human HeLa cells transfected with NFkappaB-Luc assessed as accumulation at diploid stage at 0.1 uM after 8 hrs by using propidium iodide staining by FACS analysis; type: functional
HeLa [23] = test: Cell cycle arrest in TNF-alpha-stimulated human HeLa cells transfected with NFkappaB-Luc assessed as accumulation at diploid stage at 20 uM after 8 hrs by using propidium iodide staining by FACS analysis; type: functional
HeLa [24] = test: Effect on cell cycle arrest in TNF-alpha-stimulated human HeLa cells transfected with NFkappaB-Luc assessed as total background cell aggregate and debris level at 20 uM after 8 hrs by using propidium iodide staining by FACS analysis; type: functional
[25] = Cytotoxicity against human whole blood lymphocytes assessed as survival cell count in millions at 3 uM after 24 hrs by trypan blue staining-based hemocytometry
HeLa [26] = test: Cell cycle arrest in TNF-alpha-stimulated human HeLa cells transfected with NFkappaB-Luc assessed as accumulation at diploid G1 phase at 20 uM after 8 hrs by using propidium iodide staining by FACS analysis; type: functional
HeLa [27] = test: Cell cycle arrest in TNF-alpha-stimulated human HeLa cells transfected with NFkappaB-Luc assessed as accumulation at total S phase at 10 uM after 8 hrs by using propidium iodide staining by FACS analysis; type: functional
HeLa [28] = test: Cell cycle arrest in TNF-alpha-stimulated human HeLa cells transfected with NFkappaB-Luc assessed as accumulation at diploid stage at 10 uM after 8 hrs by using propidium iodide staining by FACS analysis; type: functional
HeLa [29] = test: Effect on cell cycle arrest in human HeLa cells transfected with NFkappaB-Luc assessed as cell debris level at 20 uM after 8 hrs by using propidium iodide staining by FACS analysis; type: functional
HeLa [30] = test: Cell cycle arrest in TNF-alpha-stimulated human HeLa cells transfected with NFkappaB-Luc assessed as accumulation at G2/G1 phase at 20 uM after 8 hrs by using propidium iodide staining by FACS analysis; type: functional
HeLa [31] = test: Cell cycle arrest in TNF-alpha-stimulated human HeLa cells transfected with NFkappaB-Luc assessed as accumulation at diploid G2 phase at 10 uM after 8 hrs by using propidium iodide staining by FACS analysis; type: functional
HeLa [32] = test: Effect on cell cycle arrest in TNF-alpha-stimulated human HeLa cells transfected with NFkappaB-Luc assessed as total background cell aggregate and debris level at 5 uM after 8 hrs by using propidium iodide staining by FACS analysis; type: functional

Question: Which results are given for `CCOC(=O)[C@]1(c2ccccc2)N=C(c2ccccc2)N(Cc2ccccc2)[C@@H]1c1ccccc1` (racemic)?
Answer: Activity [1]: 1.02 mL⁻¹; IC50 (Blood): 2500 nM; Activity (HeLa [2]): 4.88%; Activity (HeLa [3]): 19.29%; Activity (HeLa [4]): 0%; Activity (HeLa [5]): 100%; Activity (HeLa [6]): 22.9%; Activity (HeLa [7]): 0.58%; Activity (HeLa [8]): 64.5%; Activity (HeLa [9]): 19.8%; Activity (HeLa [10]): 16.8%; Activity (HeLa [11]): 1.91%; Activity (HeLa [12]): 1.91%; Activity (HeLa [13]): 13.88%; CC50 at 24 h [14]: > 10000 nM; Activity [15]: 0.8 mL⁻¹; Activity (HeLa [16]): 0%; Activity (HeLa [17]): 0%; Activity (HeLa [18]): 66.37%; Activity (HeLa [19]): 19.8%; Activity (HeLa [20]): 15.28%; Activity (HeLa [21]): 0%; Activity (HeLa [22]): 100%; Activity (HeLa [23]): 100%; Activity (HeLa [24]): 5.59%; Activity [25]: 0.86 mL⁻¹; Activity (HeLa [26]): 65.96%; Activity (HeLa [27]): 16.8%; Activity (HeLa [28]): 100%; Activity (HeLa [29]): 9.42%; Activity (HeLa [30]): 1.9%; Activity (HeLa [31]): 15.01%; Activity (HeLa [32]): 1.14%
